PubChem BioAssay AID330 (DTP/NCI, 2004)
Values joined by “and” are separate entries in the source; they are usually repeats but may differ in a detail not shown here. Identical values can stand only once. Inconclusive results and toxic doses are left out.

Test system: P388 leukemia ip, CD2F1 mice, survival T/C
Test: NCI In Vivo Anticancer Drug Screen. Data for tumor model P388 Leukemia (intraperitoneal) in CD2F1 (CDF1) mice
Details: endpoint: median survival time, higher = longer survival
Outline: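 Mice carrying the transplanted tumor received test compound or vehicle. Survival was recorded in each group, and the value is the treated-group measurement divided by that of the vehicle-treated control group.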

[1] = dose: 25.0 mg/kg/injection, schedule: Q01DX009 (ip), vehicle: saline with Tween-80
[2] = dose: 50.0 mg/kg/injection, schedule: Q01DX009 (ip), vehicle: saline with Tween-80
[3] = dose: 100.0 mg/kg/injection, schedule: Q01DX009 (ip), vehicle: saline with Tween-80
[4] = dose: 200.0 mg/kg/injection, schedule: Q01DX009 (ip), vehicle: saline with Tween-80
[5] = dose: 50.0 mg/kg/injection, schedule: Q01DX009 (ip), vehicle: Klucel (hydroxypropylcellulose) (HPC)
[6] = dose: 100.0 mg/kg/injection, schedule: Q01DX009 (ip), vehicle: Klucel (hydroxypropylcellulose) (HPC)
[7] = dose: 200.0 mg/kg/injection, schedule: Q01DX009 (ip), vehicle: Klucel (hydroxypropylcellulose) (HPC)

CC(C)(C=O)CNC(C)(C)C
T/C [1]: 110 % of control
T/C [2]: 100 % of control and 108 % of control
T/C [3]: 103 % of control and 105 % of control
T/C [4]: 91 % of control and 103 % of control

COc1c2c(c3c(c1OC)CCN(CC(c1ccccc1)c1ccccc1)C3)CCC2
T/C (dose: 100.0 mg/kg/injection, schedule: Q04DX002 (ip), vehicle: saline): 101 % of control
T/C (dose: 200.0 mg/kg/injection, schedule: Q04DX002 (ip), vehicle: saline): 100 % of control
T/C (dose: 400.0 mg/kg/injection, schedule: Q04DX002 (ip), vehicle: saline): 103 % of control

CCN(CCc1ccc(N)cc1)C(Cc1ccccc1)c1cccc(OC)c1 (centres undefined)
T/C (dose: 12.5 mg/kg/injection, schedule: Q01DX009 (ip), vehicle: saline with Tween-80): 95 % of control
T/C [1]: 95 % of control
T/C [2]: 87 % of control

CC(CCc1ccc2c(c1)OCO2)NCC(O)c1ccc(O)c(C(N)=O)c1 (centres undefined)
T/C [5]: 93 % of control
T/C [6]: 94 % of control
T/C [7]: 100 % of control

NC(=O)c1nccnc1Cl
T/C [5]: 101 % of control
T/C [6]: 100 % of control
T/C [7]: 114 % of control

c1ccc(N=C2SCCCS2)cc1
T/C [5]: 103 % of control
T/C [6]: 97 % of control
T/C [7]: 105 % of control

CCCCC/C(C)=C\CBr
T/C [1]: 96 % of control
T/C [2]: 99 % of control
T/C [3]: 89 % of control

COC(=O)C1=CO[C@@H](OC2OC(CO)C(O)C(O)C2O)[C@H]2[C@@H]1C=C[C@@]21C=C([C@H](C)OC(=O)/C=C/c2ccc(OC3OC(CO)C(O)C(O)C3O)cc2)C(=O)O1 (some centres undefined)
T/C (dose: 56.0 mg/kg/injection, schedule: Q01DX005 (ip), vehicle: water): 105 % of control
T/C (dose: 112.0 mg/kg/injection, schedule: Q01DX005 (ip), vehicle: water): 105 % of control
T/C (dose: 225.0 mg/kg/injection, schedule: Q01DX005 (ip), vehicle: water): 104 % of control

O=c1c(-c2ccccc2)nnc2sc(-c3cccc(Cl)c3)nn12
T/C (dose: 50.0 mg/kg/injection, schedule: Q04DX002 (ip), vehicle: Klucel (hydroxypropylcellulose) (HPC)): 98 % of control
T/C (dose: 100.0 mg/kg/injection, schedule: Q04DX002 (ip), vehicle: Klucel (hydroxypropylcellulose) (HPC)): 93 % of control
T/C (dose: 200.0 mg/kg/injection, schedule: Q04DX002 (ip), vehicle: Klucel (hydroxypropylcellulose) (HPC)): 90 % of control

CC1(C)CN(c2ccccc2)N(CN2CCOCC2)C1=O
T/C (dose: 3.12 mg/kg/injection, schedule: Q01DX009 (ip), vehicle: Klucel (hydroxypropylcellulose) (HPC)): 103 % of control
T/C (dose: 6.25 mg/kg/injection, schedule: Q01DX009 (ip), vehicle: Klucel (hydroxypropylcellulose) (HPC)): 97 % of control
T/C (dose: 12.5 mg/kg/injection, schedule: Q01DX009 (ip), vehicle: Klucel (hydroxypropylcellulose) (HPC)): 104 % of control

Clc1ccc(CSc2ncnc3nc[nH]c23)cc1
T/C (dose: 100.0 mg/kg/injection, schedule: Q04DX003 (ip), vehicle: saline with Tween-80): 109 % of control
T/C (dose: 200.0 mg/kg/injection, schedule: Q04DX003 (ip), vehicle: saline with Tween-80): 104 % of control
T/C (dose: 400.0 mg/kg/injection, schedule: Q04DX003 (ip), vehicle: saline with Tween-80): 109 % of control

CCOC(=O)C(C(=O)c1ccccc1)C(=O)C(C)(C)C (centres undefined)
T/C [2]: 100 % of control
T/C [3]: 91 % of control
T/C [4]: 95 % of control

COc1c2c(c(C)c3ccc4ccccc4c13)CCN=C2
T/C (dose: 50.0 mg/kg/injection, schedule: Q01DX005 (ip), vehicle: Klucel (hydroxypropylcellulose) (HPC)): 103 % of control
T/C (dose: 100.0 mg/kg/injection, schedule: Q01DX005 (ip), vehicle: Klucel (hydroxypropylcellulose) (HPC)): 102 % of control
T/C (dose: 200.0 mg/kg/injection, schedule: Q01DX005 (ip), vehicle: Klucel (hydroxypropylcellulose) (HPC)): 113 % of control

CCOc1c/c(=N\N=C(/C)c2ccc(Cl)cc2)n(C)c(=O)n1C
T/C [5]: 93 % of control
T/C [6]: 96 % of control
T/C [7]: 100 % of control

COc1ccc2c(c1)CCC1=C2CCP1(C)=S (centres undefined)
T/C [5]: 106 % of control
T/C [6]: 97 % of control
T/C [7]: 88 % of control

CNC(C)C1(O)Cc2c(O)c3c(c(O)c2C(OC2CC(N)C(O)C(C)O2)C1)C(=O)c1c(OC)cccc1C3=O (centres undefined)
T/C (dose: 4.0 mg/kg/injection, schedule: Q01DX009 (ip), vehicle: water): 150 % of control
T/C (dose: 8.0 mg/kg/injection, schedule: Q01DX009 (ip), vehicle: water): 157 % of control and 161 % of control
T/C (dose: 16.0 mg/kg/injection, schedule: Q01DX009 (ip), vehicle: water): 95 % of control
